Measured values as given in US20210253575A1, “PYRROLIDINE AMINE COMPOUNDS FOR THE TREATMENT OF AUTOIMMUNE DISEASE” (Hoffmann-La Roche Inc., priority 2018, published 2021).

Biological target: T1, human TLR9 (Homo sapiens, UniProt Q9NR96)
T1 sequence (Q9NR96 26-1032): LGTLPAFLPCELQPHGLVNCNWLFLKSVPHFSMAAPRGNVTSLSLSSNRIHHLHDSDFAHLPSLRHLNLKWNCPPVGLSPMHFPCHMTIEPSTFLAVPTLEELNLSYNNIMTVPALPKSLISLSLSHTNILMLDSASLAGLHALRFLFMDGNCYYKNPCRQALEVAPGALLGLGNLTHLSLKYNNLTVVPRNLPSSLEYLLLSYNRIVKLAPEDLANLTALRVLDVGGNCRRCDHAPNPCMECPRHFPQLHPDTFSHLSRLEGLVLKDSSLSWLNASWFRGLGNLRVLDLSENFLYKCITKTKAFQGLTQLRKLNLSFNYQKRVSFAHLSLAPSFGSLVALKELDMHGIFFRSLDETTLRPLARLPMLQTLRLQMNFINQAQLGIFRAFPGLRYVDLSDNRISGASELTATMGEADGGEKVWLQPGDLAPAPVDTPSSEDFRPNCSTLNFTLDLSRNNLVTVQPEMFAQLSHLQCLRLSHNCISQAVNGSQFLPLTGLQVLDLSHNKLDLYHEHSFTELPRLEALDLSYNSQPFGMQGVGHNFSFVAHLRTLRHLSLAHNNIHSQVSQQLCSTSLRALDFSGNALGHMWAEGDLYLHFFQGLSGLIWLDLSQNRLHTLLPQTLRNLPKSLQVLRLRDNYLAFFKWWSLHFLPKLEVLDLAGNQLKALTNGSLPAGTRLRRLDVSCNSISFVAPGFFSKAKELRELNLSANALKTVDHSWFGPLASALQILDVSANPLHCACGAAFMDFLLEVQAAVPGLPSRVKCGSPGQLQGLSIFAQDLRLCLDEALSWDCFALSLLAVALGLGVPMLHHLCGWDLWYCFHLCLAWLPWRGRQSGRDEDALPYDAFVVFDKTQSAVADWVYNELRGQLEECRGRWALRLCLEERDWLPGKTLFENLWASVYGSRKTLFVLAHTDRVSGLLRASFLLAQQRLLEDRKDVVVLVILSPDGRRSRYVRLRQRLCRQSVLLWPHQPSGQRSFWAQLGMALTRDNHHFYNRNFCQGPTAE
Assay: HEK293-Blue-hTLR-9 cells assay (SEAP reporter, ODN2006 stimulation)
Type: cell-based
Conditions: HEK293-Blue-hTLR9 cells, ODN2006 ligand, 20 hrs incubation
Procedure, shortened: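 HEK293-Blue-hTLR9 cells with NF-κB/AP-1-driven SEAP reporter, stimulated with ODN2006 in presence of serially diluted compounds (1% DMSO) for 20 h at 37 °C. Supernatant SEAP measured with QUANTI-Blue after 2 h at 37 °C, absorbance 620–655 nm.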

Row | SMILES | IC50 [nM]
1 | CC1(CN)CCN(C[C@H]2CN(c3ccc(C#N)c4nccnc34)C[C@@H]2C(F)(F)F)C1 (stereo partly drawn) [Example 85, 8-[(3S,4R)-3-[[3-(aminomethyl)-3-methyl-pyrrolidin-1-yl]methyl]-4-(trifluoromethyl)pyrrolidin-1-yl]quinoxaline-5-carbonitrile] | 314
2 | N#Cc1ccc(N2CC(CN3CCNCC3)C3(CC3)C2)c2nccnc12 (centres unmarked) [Example 3, 8-[7-(piperazin-1-ylmethyl)-5-azaspiro[2.4]heptan-5-yl]quinoxaline-5-carbonitrile] | 1870
3 | CN(C)[C@@H]1CCN(C[C@H]2CN(c3ccc(C#N)c4nccnc34)C[C@@H]2C(F)(F)F)C1 [Example 83, 8-[(3S,4R)-3-[[(3R)-3-(dimethylamino)pyrrolidin-1-yl]methyl]-4-(trifluoromethyl)pyrrolidin-1-yl]quinoxaline-5-carbonitrile] | 2020
4 | CN1CCC2(CCN(C[C@H]3CN(c4ccc(C#N)c5nccnc45)C[C@@H]3C(F)(F)F)C2)C1 (stereo partly drawn) [Example 84, 8-[(3S,4R)-3-[(7-methyl-2,7-diazaspiro[4.4]nonan-2-yl)methyl]-4-(trifluoromethyl)pyrrolidin-1-yl]quinoxaline-5-carbonitrile] | 409
5 | N#Cc1ccc(N2CC(CN3CC4CCC(C3)C4N)C3(CC3)C2)c2nccnc12 (centres unmarked) [Example 4, 8-[7-[(8-Amino-3-azabicyclo[3.2.1]octan-3-yl)methyl]-5-azaspiro[2.4]heptan-5-yl]quinoxaline-5-carbonitrile] | 244
